How the values were obtained:
[1] = Surfactant effect on tetrakis aminium dye retention and particle size during emulsification; format: physicochemical; settings: emulsion and evaporation process; emulsifier as labelled
Description: The preparation of the aqueous phase: under the stirring with an IKA Ultra-Turrax® T 25 homogenizer at 8000 RPM, 1.2 g of sodium dodecyl sulfate (SDS) was added into 190 g of 4.9% aqueous polyvinyl alcohol (PVA) solution placed in a round bottom flask. An aqueous solution of SDS containing 4.9% PVA was formed after the dissolution of SDS (the aqueous phase).
The preparation of the organic phase: to 88 g of dichloromethane was added 8.0 g of DSM NeoCryl® B-805 polymer (MMA/BMA copolymer), 1.82 g of Epolight™ 1117 dye, and 0.65 g of Cyanox® 1790 in 88 g to allow the formation of a clear solution of B805 polymer and dyes (the polymer: dye weight ratio=4.4:1).
The organic phase (polymer and dyes dissolved in dichloromethane) was injected directly into the aqueous phase (PVA solution with SDS surfactant) at the tip of the Turrax's roto-stator (i.e. directly into the flow being sheared by the roto-stator). The shear mixing at 8000 RPM was continued for 30 minutes. The resulting mixture was decanted into an open-mouth container and stirred magnetically for 16 hours. A solid suspension of particles containing IR dye was obtained. […]
Particle Size and Distribution for the particle heaters The particle size and size distribution of the NIR dye/MMA/BMA copolymer particles were measured by a Horiba LA-950 Particle Size Analyzer in distilled water with pH 7.4 (FIG. 3). […]

[2] = Screening of acrylic polymer carriers and additives for particle performance; format: physicochemical; settings: additive within the particles
Source text: Various commercially available acrylic polymers were screened for preferred particle performance characteristic such as particle size distribution, IR dye stability and encapsulation efficiency.
The loading of dyes within the particles is as high as possible without degrading the cohesion of the polymer. The additives that stabilize the dye within the particles have been studied.

SMILES | Epolight™ 1117 retention in the particles [1] | impact on dye stability [2]
CCCCCCCCCCCCCOC(=O)CC(C(=O)OCCCCCCCCCCCCC)S(=O)(=O)O.[Na] (stereo not drawn) [Aerosol® TR-70, sodium bis(tridecyl) sulfosuccinate] | 50% | –
Cc1cc(C(C)(C)C)c(O)c(C)c1Cn1c(=O)n(Cc2c(C)cc(C(C)(C)C)c(O)c2C)c(=O)n(Cc2c(C)cc(C(C)(C)C)c(O)c2C)c1=O [Cyanox® 1790, 1,3,5-tris(4-tert-butyl-3-hydroxy-2,6-dimethylbenzyl)-1,3,5-triazine-2,4,6-(1H,3H,5H)-trione] | – | positive impact on dye stability
CCCCCCCCCCCCOS(=O)(=O)[O-].[Na+] [Sodium dodecyl sulfate, sodium dodecyl sulfate] | 85-90% | –
